Source: patent US7704986B2, “Vitamin D3 analogues for the prevention and treatment of bone disorders” (K.U. Leuven Research and Development, priority 2004, dated 2010)
Several values for one entry are separate records, joined by “and”; a condition that tells them apart may be missing. Equal entries are not always repeated.

Experiments:
[1] = test system: OVX or SHAM C3H female mice; test: Restoration of bone loss in ovariectomized mice, oral treatment started 3 weeks after surgery; type: in vivo; settings: 8 weeks
Procedure: 12-week-old C3H female mice were subjected to bilateral ovariectomy (OVX) or sham surgery SHAM (time point −3). The OVX and SHAM animals were treated with the vitamin D analogue MV2 (1 μg/kg three times per week) or vehicle (arachis oil) by oral gavage. Dosing was started 3 weeks after surgery (time point 0) and was continued for 8 weeks (time point 8). The number of mice per group is 8 to 10.
Before the surgery and 3 weeks after ovariectomy in vivo, measurements were performed in order to determine bone mineral density (BMD), bone mineral content (BMC) of total body and spine by DEXA. Before the surgery and 3 weeks after ovariectomy, serum was collected to measure calcium levels by a standard […] method (Synchron CX4, Beckman Instruments, USA). The animals were weighted regularly during the experimental period to monitor their overall health and well being. After 4 weeks treatment, serum was again collected and biochemical parameters were determined. At the end of the experiment (8 weeks of treatment) bone mineral density (BMD) and bone mineral content (BMC) of total body and spine were measured by DEXA and serum was collected to determine serum calcium levels. […] Tibiae were used for histomorphometric analysis, and femurs for measurement of cortical and trabecular volumetric density and geometry by peripheral quantitative computed tomography (PQCT) ex vivo. […]

[2] = test system: SHAM or OVX operated C3H mice; test: Ovariectomized mice model for primary prevention of osteoporosis; type: in vivo; settings: 0.5 μg/kg i.p.
Procedure: Twelve-week-old C3H mice were randomly divided into four groups (9-13 mice/group). Two groups of mice were SHAM-operated (SHAM) and two groups were ovariectomized (OVX). Three days after the surgical procedure the SHAM and OVX mice were injected with MV2 intraperitoneally at 0.5 μg/kg/2days (4 times per week) or vehicle (arachis oil). The mice were treated for 8 weeks. At the beginning (before the first injection) of the experiment, bone mineral density (BMD) and bone mineral content (BMC) were determined by dual-energy X-ray absorptiometry (hereinafter referred as DEXA) and serum calcium levels were determined by a microcolorimetric assay. The animals were weighted regularly during the experimental period.
At the end of the experiment serum calcium levels, BMD and BMC were again measured. Trabecular and cortical bone mineral content (BMC) and bone mineral density (BMD) and the geometry of the femur were assessed by a Stratex XCT densitometer (pQCT). Femur calcium content was measured in HCl-dissolved bone ash (obtained by heating for 24 hours in an oven at 100° C.), using a microcolorimetric assay. […] Statistical analysis was performed with the software program NCSS (NCSS, Kaysville, Utah, USA). ANOVA analyses followed bye Fisher's least significant (LSD)-multiple comparison tests were carried out to detect significant differences, p<0.05 was accepted as significant.

[3] = test system: normal (no surgery) C3H female mice; test: Oral gavage versus i.p. in normal (no surgery) mice, 5 weeks; type: in vivo; settings: for BMC total body, SHAM + vitaminD analogue vs. SHAM + vehicle (= 100%) in % / BMD spine, SHAM + vitaminD analogue vs. SHAM + vehicle (= 100%) in % / BMD total body, SHAM + vitaminD analogue vs. SHAM + vehicle (= 100%) in %: DEXA, 5 weeks, increase (↑)
Procedure: Besides injecting the compound MV2 intraperitoneally (results in table 3), it was also given orally by gavage in normal (no surgery) C3H female mice and the biological effects were investigated as described before. MV2 given orally at a dose of 1 μg/kg/2days (3 times per week) during 5 weeks was as effective as intraperitoneal injections at a dose of 0.5 μg/kg/2 days (4 times per week) during 5 weeks in C3H mice (Table 4).

[4] = biological target: T1, vitamin D receptor (VDR) (Sus scrofa, UniProt A3RGC1); test: Affinity for vitamin D receptor: competition with [3H]1α,25(OH)2D3; type: binding; settings: pig intestinal mucosa supernatant, 4° C. 20 hours; 1α,25(OH)2D3 = 100%
T1 construct: high speed supernatant from intestinal mucosa homogenates obtained from normal pigs; from tissue; host or cells: pig intestinal mucosa (high speed supernatant of homogenate)
T1 sequence (A3RGC1 1-427): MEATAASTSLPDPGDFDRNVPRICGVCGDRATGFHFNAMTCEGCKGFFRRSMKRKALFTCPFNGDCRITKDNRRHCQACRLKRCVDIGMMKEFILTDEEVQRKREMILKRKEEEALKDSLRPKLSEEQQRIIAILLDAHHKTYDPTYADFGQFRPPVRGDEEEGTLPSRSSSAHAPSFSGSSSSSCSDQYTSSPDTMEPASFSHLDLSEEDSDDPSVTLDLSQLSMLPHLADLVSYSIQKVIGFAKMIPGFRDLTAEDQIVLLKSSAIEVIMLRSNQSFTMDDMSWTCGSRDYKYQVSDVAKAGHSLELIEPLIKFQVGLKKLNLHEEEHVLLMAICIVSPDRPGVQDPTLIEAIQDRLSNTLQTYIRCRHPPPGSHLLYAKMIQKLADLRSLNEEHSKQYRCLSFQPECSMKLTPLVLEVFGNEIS
Procedure: The methods used herein to evaluate the binding properties of vitamin D analogues are state of the art techniques used for steroid hormone (including vitamin D) binding assays. […] Incubation was performed at 4° C. for 20 hours and phase separation was obtained by addition of dextran-coated charcoal.

[5] = DEXA, OVX mice, 8 weeks, increase (↑)
[6] = DEXA, SHAM mice, 8 weeks, increase (↑)
[7] = calculated from pQCT femur, OVX mice, 8 weeks, increase (↑)
[8] = calculated from pQCT femur, SHAM mice, 8 weeks, increase (↑), * not significant
[9] = pQCT femur, OVX mice, 8 weeks, increase (↑)
[10] = pQCT femur, SHAM mice, 8 weeks, increase (↑)
[11] = 0.5 μg/kg/2 days i.p. 4 times per week
[12] = 1 μg/kg/2 days orally 3 times per week

SMILES: C[C@H](CC#CC(O)(C(F)(F)F)C(F)(F)F)[C@@]1(C)CC[C@@H](/C=C/C=C2C[C@@H](O)C[C@H](O)C2)C1(C)C [MV2, (1R,3R)-5-((E)-3-((1S,3R)-3-((1R)-6,6,6-trifluoro-5-hydroxy-1-methyl-5-trifluoromethyl-3-hexynyl)-2,2,3-trimethylcyclopentyl)-2-propenylidene)cyclohexane-1,3-diol]
- hypercalcemic effects (serum calcium) ([1]; 1 pg/kg three times per week (so in the source)): no hypercalcemic effects
- body weight during treatment ([1]; 1 μg/kg p.o. three times per week): no animals lost weight
- body weight during treatment ([2]; 8 weeks): no animals lost weight
- serum calcium levels (no hypercalcemic effects) ([2]; end of 8 weeks): below 11.5 mg/dl
- BMC total body, OVX + analogue vs. OVX + vehicle (= 100%) in % [2, 5]: 19% and 19 ↑ %
- BMD spine, OVX + analogue vs. OVX + vehicle (= 100%) in % [2, 5]: 22% and 22 ↑ %
- BMD total body, OVX + analogue vs. OVX + vehicle (= 100%) in % [2, 5]: 9% and 9 ↑ %
- BMC total body, SHAM + analogue vs. SHAM + vehicle (= 100%) in % [2, 6]: 16% and 16 ↑ %
- BMD spine, SHAM + analogue vs. SHAM + vehicle (= 100%) in % [2, 6]: 11% and 11 ↑ %
- BMD total body, SHAM + analogue vs. SHAM + vehicle (= 100%) in % [2, 6]: 9% and 9 ↑ %
- increase in calcium content in femur, OVX treated animals compared to control animals ([2]; OVX mice, 8 weeks): 14%
- increase in calcium content in femur, SHAM treated animals compared to control animals ([2]; SHAM mice, 8 weeks): 12%
- Moment of inertia, OVX analogue versus OVX vehicle (=100%) in % [2, 7]: 12 ↑ %
- Moment of resistance, OVX analogue versus OVX vehicle (=100%) in % [2, 7]: 8 ↑ %
- Moment of inertia, SHAM analogue versus SHAM vehicle (=100%) in % [2, 8]: 6 ↑* %
- Moment of resistance, SHAM analogue versus SHAM vehicle (=100%) in % [2, 8]: 3 ↑* %
- Endosteal circumference, OVX analogue versus OVX vehicle (=100%) in % ([2]; pQCT femur, OVX mice, 8 weeks, decrease (↓), * not significant): 2 ↓* %
- Cortical BMC, OVX analogue versus OVX vehicle (=100%) in % [2, 9]: 11 ↑ %
- Cortical BMD, OVX analogue versus OVX vehicle (=100%) in % [2, 9]: 2 ↑ %
- Cortical area, OVX analogue versus OVX vehicle (=100%) in % [2, 9]: 9 ↑ %
- Cortical thickness, OVX analogue versus OVX vehicle (=100%) in % [2, 9]: 8 ↑ %
- Periosteal circumference, OVX analogue versus OVX vehicle (=100%) in % [2, 9]: 3% and 3 ↑ %
- Trabecular BMC, OVX analogue versus OVX vehicle (=100%) in % [2, 9]: 69 ↑ %
- Trabecular BMD, OVX analogue versus OVX vehicle (=100%) in % [2, 9]: 57 ↑ %
- Trabecular area, OVX analogue versus OVX vehicle (=100%) in % [2, 9]: 8 ↑ %
- Endosteal circumference, SHAM analogue versus SHAM vehicle (=100%) in % ([2]; pQCT femur, SHAM mice, 8 weeks, decrease (↓), * not significant): 4 ↓* %
- Cortical BMC, SHAM analogue versus SHAM vehicle (=100%) in % [2, 10]: 7 ↑ %
- Cortical BMD, SHAM analogue versus SHAM vehicle (=100%) in % [2, 10]: 1 ↑ %
- Cortical area, SHAM analogue versus SHAM vehicle (=100%) in % [2, 10]: 6 ↑ %
- Cortical thickness, SHAM analogue versus SHAM vehicle (=100%) in % [2, 10]: 6 ↑ %
- Trabecular BMC, SHAM analogue versus SHAM vehicle (=100%) in % [2, 10]: 83 ↑ %
- Trabecular BMD, SHAM analogue versus SHAM vehicle (=100%) in % [2, 10]: 74 ↑ %
- Trabecular area, SHAM analogue versus SHAM vehicle (=100%) in % [2, 10]: 7 ↑ %
- Periosteal circumference, SHAM analogue versus SHAM vehicle (=100%) in % ([2]; pQCT femur, SHAM mice, 8 weeks, increase (↑), * not significant): 1 ↑* %
- BMC total body, SHAM + vitaminD analogue vs. SHAM + vehicle (= 100%) in % [3, 11]: 7 ↑ %
- BMD spine, SHAM + vitaminD analogue vs. SHAM + vehicle (= 100%) in % [3, 11]: 9 ↑ %
- BMD total body, SHAM + vitaminD analogue vs. SHAM + vehicle (= 100%) in % [3, 11]: 4 ↑ %
- BMC total body, SHAM + vitaminD analogue vs. SHAM + vehicle (= 100%) in % [3, 12]: 10 ↑ %
- BMD spine, SHAM + vitaminD analogue vs. SHAM + vehicle (= 100%) in % [3, 12]: 14 ↑ %
- BMD total body, SHAM + vitaminD analogue vs. SHAM + vehicle (= 100%) in % [3, 12]: 5 ↑ %
- serum calcium levels ([3]; analogue treated mice, 5 weeks (control mice 11.43±0.78)): 11.36 ± 0.56 mg/dL
- VDR (relative affinity) [4]: 50%
